In patent publication US8426447B2, “Spiro-tricyclic ring compounds as beta-secretase modulators and methods of use” (Amgen Inc., priority 2008, dated 2013):

Assays:
BACE1 [1] = target: T1, BACE1 (Homo sapiens, UniProt P56817); experiment: In Vitro BACE Cell-based Assay (HEK cell assay): Aβ40 in conditioned medium of cells stably expressing Amyloid Precursor Protein, sandwich ELISA; conditions: read-out: HEK cell assay
Procedure, shortened: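 Conditioned medium Aβ40 by ELISA: pAb40 capture 3 h 4° C., biotin-6E10 detection 2 h 4° C., Streptavidin-Europium TRF. IC50 fitted from % control.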

BACE1 [2] = target: T1, BACE1; experiment: In Vitro Enzymatic BACE FRET (Fluorescence Resonance Energy Transfer) Assay; assay type: biochemical; conditions: read-out: BACE1 FRET assay
Procedure, shortened: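 Run in 0.05 M acetate pH 4.2 with 10% DMSO final and 100 uM genapol detergent below its CMC. Reaction was started with 50 nM FRET peptide substrate (fluorophore and quencher flanking the BACE cleavage site), incubated one hour, stopped with Tris to neutral pH, and fluorescence read.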

[3] = Table II, Aβ40, 24 h incubation
[4] = HEK cell-based assay, Aβ40 in conditioned medium, IC50 class symbols
[5] = in vitro BACE FRET enzyme assay, IC50 class symbols

T1 sequence (P56817 46-501, species assumed): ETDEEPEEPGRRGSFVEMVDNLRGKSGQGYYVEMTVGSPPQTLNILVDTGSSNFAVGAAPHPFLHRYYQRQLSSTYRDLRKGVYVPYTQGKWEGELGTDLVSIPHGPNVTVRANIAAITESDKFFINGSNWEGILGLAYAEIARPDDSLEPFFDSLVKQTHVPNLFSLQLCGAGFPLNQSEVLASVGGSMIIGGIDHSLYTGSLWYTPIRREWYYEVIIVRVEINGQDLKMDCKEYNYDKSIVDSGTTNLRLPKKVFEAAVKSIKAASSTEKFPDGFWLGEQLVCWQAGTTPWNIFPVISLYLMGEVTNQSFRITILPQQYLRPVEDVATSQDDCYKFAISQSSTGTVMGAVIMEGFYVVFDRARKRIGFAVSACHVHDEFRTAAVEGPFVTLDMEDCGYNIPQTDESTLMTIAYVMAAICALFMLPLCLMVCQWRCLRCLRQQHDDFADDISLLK

Which IC50 (BACE1 [1]; HEK cells) does the source give for `CC1(C#Cc2cnc3c(c2)[C@]2(COC(N)=N2)c2cc(-c4ccccc4F)ccc2O3)COC1` [compound 520] here?
The IC50 was under 0.1 µM.

And the IC50 (BACE1 [2])?
Its IC50 is under 0.1 µM.

Which results are given for `Cn1cc(-c2ccc3c(c2)[C@@]2(COC(N)=N2)c2cc(OCC(C)(C)C)ccc2O3)cn1` [Example 82, (4S)-2′-(2,2-dimethylpropoxy)-7′-(1-methyl-1H-pyrazol-4-yl)spiro[1,3-oxazole-4,9′-xanthen]-2-amine]?
IC50 (BACE1 [1]; [3]): 1 to 5 µM; IC50 (BACE1 [2]; Table II): 0.1 to 1 µM

For `CC(C)(C)COc1ccc2c(c1)[C@@]1(COC(N)=N1)c1cc(-c3cc(Cl)ccc3F)cnc1O2` [Example 90, (5S)-3-(5-chloro-2-fluorophenyl)-7-(2,2-dimethylpropoxy)spiro[chromeno[2,3-b]pyridine-5,4′-[1,3]oxazol]-2′-amine], which IC50 (BACE1 [1]; [3]) is on record?
The IC50 was 1 to 5 µM.

And the IC50 (BACE1 [2]; Table II)?
The IC50 was under 0.1 µM.

Which IC50 (BACE1 [1]; HEK cells) does the source give for `CC1(C)C=C(c2cnc3c(c2)[C@]2(COC(N)=N2)c2cc(-c4cncnc4)ccc2O3)CCO1` [compound 478] here?
Its IC50 is under 0.1 µM.

And the IC50 (BACE1 [2])?
Its IC50 is under 0.1 µM.

How did the IC50 (BACE1 [1]; Table 1, Aβ40, 24 h incubation) turn out when `Cc1ccc2c(c1)Oc1ccc(-c3cccc(Cl)c3)cc1C21COC(N)=N1` (stereo not drawn) [Example 25, 2′-(3-chlorophenyl)-6′-methylspiro[1,3-oxazole-4,9′-xanthen]-2-amine] was run?
Its IC50 is 1 to 5 µM.

And the IC50 (BACE1 [2]; Table 1)?
The IC50 was over 5 µM.

With `CC(C)(C)CCOc1nccc2c1[C@@]1(COC(N)=N1)c1cc(-c3cncnc3)ccc1O2` [compound 985] as the molecule, how does the IC50 (BACE1 [1]) read?
The IC50 was over 5 µM.

And the IC50 (BACE1 [2])?
The IC50 was 0.1 to 1 µM.

`CN(C)c1ncc(-c2ccc3c(c2)[C@@]2(COC(N)=N2)c2cc(OCC(C)(C)C)ccc2O3)cn1` [compound 838] was tested. Which IC50 (BACE1 [1]; Table IV, class symbols) did it give?
The IC50 was over 5 µM.

And the IC50 (BACE1 [2]; Table IV, class symbols)?
The IC50 was over 5 µM.

Which IC50 (BACE1 [1]; Table IV, class symbols) does the source give for `CC(C)(C)COc1ccc2c(c1)[C@]1(COC(N)=N1)c1cc(N3CCCC3)ccc1O2` [compound 815] here?
The IC50 was 1 to 5 µM.

And the IC50 (BACE1 [2]; Table IV, class symbols)?
Its IC50 is 0.1 to 1 µM.

How did the IC50 (BACE1 [1]) turn out when `CC(C)(C)CCOc1nccc2c1[C@]1(COC(N)=N1)c1cc(-c3cccnc3)ccc1O2` [compound 932] was run?
The IC50 was 0.1 to 1 µM.

And the IC50 (BACE1 [2])?
The IC50 was 0.1 to 1 µM.

`CC(C)(F)COc1cc(F)c2c(c1)[C@]1(COC(N)=N1)c1cc(-c3cccnc3)ccc1O2` [compound 381] was tested. Which IC50 (BACE1 [1]; [4]) did it give?
The IC50 was under 0.1 µM.

What about the IC50 (BACE1 [2]; [5]) of the same molecule?
The IC50 was under 0.1 µM.

With `CC(C)(C)COc1ccc2c(c1)[C@]1(COC(N)=N1)c1cc(-c3cnccc3Cl)ccc1O2` [compound 883] as the molecule, how does the IC50 (BACE1 [1]; Table IV, class symbols) read?
The IC50 was 0.1 to 1 µM.

What about the IC50 (BACE1 [2]; Table IV, class symbols) of the same molecule?
Its IC50 is under 0.1 µM.

What does the source list for `COc1ccc2c(c1)[C@]1(COC(N)=N1)c1cc(-c3cncnc3)ccc1O2` [Example 10, (4S)-2′-methoxy-7′-(5-pyrimidinyl)spiro[1,3-oxazole-4,9′-xanthen]-2-amine]?
IC50 (BACE1 [1]; Table 1, Aβ40, 24 h incubation): 1 to 5 µM; IC50 (BACE1 [2]; Table 1): 0.1 to 1 µM

Which IC50 (BACE1 [1]) does the source give for `CC(C)(C)C#Cc1ccc2c(c1)[C@@]1(COC(N)=N1)c1cc(C#CC(C)(C)C)cnc1O2` [compound 1000] here?
Its IC50 is 0.1 to 1 µM.

What about the IC50 (BACE1 [2]) of the same molecule?
Its IC50 is under 0.1 µM.

What does the source list for `NC1=N[C@]2(CO1)c1cc(C(=O)CC3CCCCC3)ccc1Oc1ccc(-c3cncnc3)cc12` [compound 141]?
IC50 (BACE1 [1]; Table III, IC50's in uM ranges): 0.1 to 1 µM; IC50 (BACE1 [2]; Table III, IC50's in uM ranges): < 0.1 µM

How did the IC50 (BACE1 [1]; Table IV, class symbols) turn out when `CC(C)(C)C#Cc1ccc2c(c1)[C@]1(COC(N)=N1)c1cc(-c3cccnc3)cnc1O2` [compound 896] was run?
Its IC50 is 1 to 5 µM.

And the IC50 (BACE1 [2]; Table IV, class symbols)?
The IC50 was 0.1 to 1 µM.

For `NC1=N[C@]2(CO1)c1cc(OCC3CCOC3)ccc1Oc1ccc(-c3cncnc3)cc12` (stereo partly drawn) [Example 132, (S)-2′-(pyrimidin-5-yl)-7′-((tetrahydrofuran-3-yl)methoxy)-5H-spiro[oxazole-4,9′-xanthen]-2-amine], which IC50 (BACE1 [1]; Table III, IC50's in uM ranges) is on record?
The IC50 was over 5 µM.

And the IC50 (BACE1 [2]; Table III, IC50's in uM ranges)?
The IC50 was 1 to 5 µM.

`CC(C)(C)COc1ccc2c(c1)[C@]1(COC(N)=N1)c1cc(C#CC3CC3)cnc1O2` [compound 45] was tested. Which IC50 (BACE1 [1]; [3]) did it give?
The IC50 was 0.1 to 1 µM.

And the IC50 (BACE1 [2]; Table II)?
The IC50 was under 0.1 µM.

How did the IC50 (BACE1 [1]; [4]) turn out when `Cc1cnc(F)c(-c2ccc3c(c2)[C@@]2(COC(N)=N2)c2cc(C4CCOCC4)ncc2O3)c1` [compound 332] was run?
The IC50 was under 0.1 µM.

What about the IC50 (BACE1 [2]; [5]) of the same molecule?
The IC50 was under 0.1 µM.

Which results are given for `COC(C)(C)COc1cnc2c(c1)[C@]1(COC(N)=N1)c1cc(-c3ccccc3)ccc1O2` [compound 350]?
IC50 (BACE1 [1]; [4]): < 0.1 µM; IC50 (BACE1 [2]; [5]): < 0.1 µM

Which IC50 (BACE1 [1]; Table IV, class symbols) does the source give for `CC(C)C(O)COc1ccc2c(c1)[C@]1(COC(N)=N1)c1cc(-c3cccnc3)ccc1O2` (stereo partly drawn) [compound 866] here?
The IC50 was 0.1 to 1 µM.

What about the IC50 (BACE1 [2]; Table IV, class symbols) of the same molecule?
The IC50 was under 0.1 µM.

Which IC50 (BACE1 [1]; Table IV, class symbols) does the source give for `CN1CCN(c2ccc3c(c2)[C@@]2(COC(N)=N2)c2cc(OCC(C)(C)C)ccc2O3)CC1` [compound 812] here?
The IC50 was 0.1 to 1 µM.

What about the IC50 (BACE1 [2]; Table IV, class symbols) of the same molecule?
Its IC50 is 1 to 5 µM.
